Patent publication US20100168216A1, “PROSTAGLANDIN PHARMACEUTICAL COMPOSITIONS” (CTG PHARMA S.R.L., priority 2007, published 2010)

Columns and labels:
Thy-1 mRNA = test: Studies on rat retina: NMDA-induced loss of Thy-1 mRNA (neuroprotection); format: in vivo, Wistar rats; conditions: Thy-1 mRNA levels (relative to rhodopsin), PEG value taken as 100; topical 5 μl of 2% in 50% PEG bilaterally twice a day, 2 days before and 7 days after intravitreal NMDA
Procedure: The method described by Osborne N. N. et al. (2002) previously reported was used. Briefly, two groups of 16 Wistar rats (200-250 g) received either 5 μl doses of topical test compound (2% in 50% polyethylene glycol-PEG) or 5 μl of vehicle bilaterally twice a day for 2 days. On the third day N-methyl-D-aspartate (NMDA) (5 μl in sterile water) was injected intra-vitreally into a single eye of each animal. The other eye was injected with sterile water. The animals were treated then with test compound or vehicle for 7 days. The Thy-1 antigen is associated with ganglion cells and intraocular injections of NMDA cause a loss of Thy-1 mRNA. The rats were then killed and the retinas removed for mRNA analysis for Thy-1 antigen. Results are expressed as % value to the Thy-1 mRNA levels (relative to rhodopsin) of the treated groups, taking PEG value as 100.

[1] = test system: IOP (Intraocular Pressure); test: Studies of IOP (intraocular pressure) on rabbit; format: in vivo, New Zealand albino rabbits; conditions: IOP mmHg as % of PEG value (100); topical application of 2% test compound, measured 60 minutes after
Procedure: The method by Osborne N. N. et al. (2002) previously reported was used. Briefly, two groups of adult male New Zealand albino rabbits weighing 3-3.5 kg were used in the experiments. IOP was measured using a properly calibrated tonometer immediately after topical application of 1 drop of 0.4% benoxinate hydrochloride. The animals received a topical application of 2% of test compound or PEG and measures taken 60 minutes after. Results are expressed as % value to the IOP mmHg values of the treatment groups, taking PEG value as 100.

Compound: O=C(CCCC=CC[C@@H]1[C@@H](CC[C@@H](O)CCc2ccccc2)[C@H](O)C[C@@H]1O)Oc1ccc(-c2cc(=S)ss2)cc1 (stereo in doubt) [Compound Example 2, (5Z)-7-[(1R,2R,3R,5S)-3,5-dihydroxy-2-[(3R)-3-hydroxy-5-phenylpentyl]cyclopentyl]-5-heptenoic acid 4-(3H-1,2-dithiole-3-thione-5-yl)-phenyl ester]
- NMDA effects (%) (Thy-1 mRNA): 52%
- IOP values (%) [1]: 85%
